# Laboratory results as given in patent US10274483B2, “Fluorescence method for sensing chlorinated disaccharides” (THE REGENTS OF THE UNIVERSITY OF CALIFORNIA, priority 2014, dated 2019).
# Key:
# Type in all cases: binding
# [1] = oBBV-HPTS two component fluorescence assay, sucralose
# Method: (§1) Urine has been analyzed for the permeability markers sucrose (stomach), lactulose and mannitol (small intestine) and sucralose (colon). The viologen oBBV was used with the fluorophore HPTS (Exc. 420 or 485 nm, Em 535 nm). Fluorescence was measured with a benchtop plate reader. HPTS is normally read at 420/535 nm, but performs well at 485/535 nm, matching FITC filter sets normally found in clinical labs. […] Lower limit of quantification (LLOQ) and dynamic range are suitable for typical urine samples.
# (§2) Developing a degradation pathway of sucralose into a saccharide that consists of the hydroxyl groups is needed for boronic acid recognition, which allows for the molecular recognition of sucralose. Sucralose contains halogenated carbons, which are easily modified via a hydroxyl anion or radical to de-chlorinate sucralose to form a detectable saccharide. Based on literature precedence, sucralose is modified through advanced oxidation photolysis to generate a fructose sugar alcohol derivative of sucrose (Ref 38). […] This has been accomplished by generating hydroxyl anion and radicals via the Fenton chemical reaction (Ref 39) in the presence of sucralose, and upon reaction completion, the modified sucralose solution was tested against the oBBV-HPTS system. Using the disclosed two component system, it is confirmed that sucralose is modified.
# [2] = oBBV-HPTS two component fluorescence assay, sucrose
# Method: as §1, §2
# [3] = oBBV-HPTS two component fluorescence assay, Fenton-modified sucralose; details: sucralose after Fenton reaction, 1 hr; sodium phosphate and HEPES buffer, 0.01% Triton-X100, pH 7.4 (FIG. 4)
# Method: FIG. 4 is a graph showing the results of a proof of concept experiment to measure modified sucralose after 1 hr of reaction time. This study was performed with ortho bis boronic acid viologen (oBBV) in sodium phosphate and HEPES buffer 0.1M containing 0.01% Triton-X100, pH 7.4. The fluorescence intensity is the normalized intensity where F=fluorescence intensity after saccharide addition and Fo=fluorescence intensity of the quenched reporter dye.
# Developing a degradation pathway of sucralose into a saccharide that consists of the hydroxyl groups is needed for boronic acid recognition, which allows for the molecular recognition of sucralose. […]
# This has been accomplished by generating hydroxyl anion and radicals via the Fenton chemical reaction (Ref 39) in the presence of sucralose, and upon reaction completion, the modified sucralose solution was tested against the oBBV-HPTS system. Using our two component system, we have confirmed that sucralose can be modified and measured by adding increasing amounts of this modified saccharide, a significant fluorescence signal was obtained.
# A solution of sucralose (20 mM) in the presence of ferrous iron (II) sulfate and hydrogen peroxide was allowed to stir for 1 hour and dilutions were made to determine if a fluorescence signal can be obtained. […]
# [4] = oBBV-HPTS two component fluorescence assay, mannitol
# Text: (§3) Boronic acids form covalent bonds with the cis-1, 2-hydroxyl groups that are commonly found in saccharides. Based on this property, a two-component sensing system is developed, comprising a fluorescent dye that serves as the indicator unit and a boronic acid-appended viologen that serves a dual function as fluorescence quencher and saccharide receptor. Dye and viologen form a non-fluorescent ground state complex. Binding to a diol weakens the complex. Subsequent dissociation from the fluorescent dye results in an increase in fluorescence dependent on diol concentration.
# as §1
# [5] = oBBV-HPTS two component fluorescence assay, lactulose
# Text: as §3, §1
# [6] = fluorophore HPTS, urine, Exc. 420 or 485 nm, Em 535 nm (FIG. 3)
smiles,measurement,setting,value
"OB(O)c1ccccc1C[n+]1ccc(-c2cc[n+](Cc3ccccc3B(O)O)cc2)cc1.[Br-].[Br-] [oBBV, 4,4′-N,N′-bis-(benzyl-2-boronic acid)-dipyridinium dibromide]",fluorescence signal with sucralose,"[1]; unmodified, tested in parallel with modified sucralose (FIG. 4)",no obtainable signal
same,de-quenching of HPTS fluorescence in the presence of sucralose,[1]; urine (FIG. 3),not
same,fluorescence signal with sucrose,[2]; tested in parallel with modified sucralose (FIG. 4),no obtainable signal
same,de-quenching of HPTS fluorescence in the presence of sucrose,[2]; urine (FIG. 3),not
same,fluorescence signal on adding increasing amounts of modified sucralose,[3],increase in fluorescence signal
same,sensitivity to mannitol,[4]; [6],good sensitivity
same,de-quenching of HPTS fluorescence in the presence of mannitol,[4]; urine (FIG. 3),selectively de-quenched
same,sensitivity to lactulose,[5]; [6],greatest preferential sensitivity
same,de-quenching of HPTS fluorescence in the presence of lactulose,[5]; urine (FIG. 3),selectively de-quenched
